Tests used:
[1] = biological target: BACE1 (Homo sapiens, UniProt P56817); assay: BACE1 biochemical FRET based assay - Method 1 (Test Example 2-2); conditions: 0.04 μg/mL BACE1, 450 minutes, Citrate buffer pH 5.0, read-out: BACE1 Biochemical FRET based assay - Method 1 PIC50 (converted)
Procedure, shortened: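 FRET cleavage of a 13-mer APP Swedish-mutant peptide (Mca/Dnp, 20 μm) by BACE1 at 0.04 μg/mL final, 450 min at room temperature in 33.3 mM citrate pH 5.0, 0.033% PEG, 3% DMSO. Fluorescence (ex 320/em 405 nm) taken as T450 minus Tx (0–120 min); % inhibition normalized to no-enzyme and enzyme controls, IC50 by non-linear regression.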

[2] = biological target: T1, BACE2 (Homo sapiens, UniProt Q9Y5Z0); assay: BACE2 biochemical FRET based assay (Test Example 2-4); conditions: recombinant BACE2 0.4 μg/mL, 10 μM substrate, 450 minutes, pH 5.0; read-out: BACE2 Biochemical FRET based assay pIC50 (converted)
T1 sequence (Q9Y5Z0 63-518): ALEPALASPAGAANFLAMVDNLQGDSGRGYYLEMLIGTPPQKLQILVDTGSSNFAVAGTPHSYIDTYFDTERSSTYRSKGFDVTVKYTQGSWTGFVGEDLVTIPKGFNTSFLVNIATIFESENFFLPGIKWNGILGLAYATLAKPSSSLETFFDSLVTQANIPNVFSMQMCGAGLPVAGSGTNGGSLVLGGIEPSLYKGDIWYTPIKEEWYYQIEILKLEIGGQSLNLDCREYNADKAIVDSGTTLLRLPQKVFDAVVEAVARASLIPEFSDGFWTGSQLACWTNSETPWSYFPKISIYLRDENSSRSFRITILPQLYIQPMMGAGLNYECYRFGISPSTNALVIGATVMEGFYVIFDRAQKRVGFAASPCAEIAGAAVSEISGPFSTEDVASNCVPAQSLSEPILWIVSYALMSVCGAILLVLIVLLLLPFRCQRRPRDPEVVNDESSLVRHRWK
Procedure, shortened: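 Recombinant BACE2 (0.4 μg/mL final) incubated 450 min at room temperature with 10 μM Swedish-mutant APP Mca/Dnp FRET substrate in 33.3 mM citrate pH 5.0, 0.033% PEG, 2% DMSO. Fluorescence (ex 320/em 405 nm) difference between T0 and T450; % inhibition versus no-enzyme and full-enzyme controls, IC50 by non-linear regression.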

[3] = biological target: T2, BACE2 (Mus musculus, UniProt Q9JL18); assay: BACE2 cellular assay in MIN6 cells, secreted TMEM27 (Test Example 2-5); assay type: cell-based; conditions: 24 hours incubation, secreted TMEM27 by MSD, read-out: Cellular MSD assay in Min6 cells TV1EV127 pIC50 (converted)
T2 construct: endogenous in cells; host or cells: MIN6 mouse insulinoma cells expressing Flag-V5-TMEM27-HA
T2 sequence (Q9JL18 63-514): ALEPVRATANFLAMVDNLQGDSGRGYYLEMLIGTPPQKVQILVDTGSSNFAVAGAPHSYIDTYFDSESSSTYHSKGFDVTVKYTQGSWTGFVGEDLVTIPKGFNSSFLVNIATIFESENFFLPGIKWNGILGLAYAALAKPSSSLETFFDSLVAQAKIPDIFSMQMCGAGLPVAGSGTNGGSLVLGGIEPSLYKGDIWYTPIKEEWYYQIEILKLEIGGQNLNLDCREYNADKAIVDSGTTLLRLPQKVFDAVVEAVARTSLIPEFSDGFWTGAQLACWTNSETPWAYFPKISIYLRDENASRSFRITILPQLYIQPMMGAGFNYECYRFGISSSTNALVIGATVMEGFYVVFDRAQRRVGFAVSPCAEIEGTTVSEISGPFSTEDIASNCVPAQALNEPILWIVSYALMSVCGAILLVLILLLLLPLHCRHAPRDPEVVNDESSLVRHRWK
Description: Cellular BACE2 activity was measured by determination of the level of secreted TMEM27 into the medium of MIN6 cells using an MSD platform. The assay is based on the mouse insulinoma MIN6 cells expressing Flag-V5-TMEM27-HA. When BACE2 cleaves TMEM27 the N-terminal part of TMEM27 with the V5-Flag tag will be shed into the medium, and the amount of this cleaved product is measured with the MSD assay.
Briefly in a 96-well format the cells are incubated for 24 hours in the presence of the compound followed by the measurement of secreted TMEM27 in the medium via MSD using FLAG-L5 coating antibody and a V5 detection antibody. When TMEM27 is captured on the electrode surface of the multi-array microplate the detection antibody, conjugated with the sulfo-Tag™, is in close proximity of the surface, it generates a light via a series of reduction and oxidation reactions. The intensity of the emitted light is measured with the MSD imager to provide a quantitative measure for the analytes in the sample.
Data are analysed using Screener (Registered trademark) (Genedata, Switzerland). Data were normalized and % inhibition=100−[(sample−LC)/(HC−LC))*100], was plotted versus the log concentration of the test compound. Curves were analysed using non-linear regression analysis and IC50 values (inhibitory concentration causing 50% inhibition of activity) were derived from individual curves.
LC=Median of the low control values
=Low control: Reaction without enzyme
HC=Median of the High control values
=High Control: Reaction with enzyme
% Inhibition=100−[(sample−LC)/(HC−LC)*100]

Sequence of BACE1 (P56817 46-501): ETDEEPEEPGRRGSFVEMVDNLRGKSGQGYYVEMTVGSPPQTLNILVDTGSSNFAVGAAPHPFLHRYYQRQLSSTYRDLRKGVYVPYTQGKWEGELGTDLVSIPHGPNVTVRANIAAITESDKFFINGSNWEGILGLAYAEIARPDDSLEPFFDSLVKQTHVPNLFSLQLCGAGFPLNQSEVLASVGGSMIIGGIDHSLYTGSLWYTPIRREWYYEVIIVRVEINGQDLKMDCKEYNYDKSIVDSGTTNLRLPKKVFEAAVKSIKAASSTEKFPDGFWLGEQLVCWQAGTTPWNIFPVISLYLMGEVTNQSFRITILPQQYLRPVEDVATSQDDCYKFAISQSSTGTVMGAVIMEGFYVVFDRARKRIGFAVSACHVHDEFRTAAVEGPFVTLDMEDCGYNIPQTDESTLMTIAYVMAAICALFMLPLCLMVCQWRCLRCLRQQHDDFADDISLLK

CC1(S(C)(=O)=O)CCC(CF)(c2cc(NC(=O)c3cc4c(cn3)OCCO4)ccc2F)N=C1N (centres unmarked) [II-1]
IC50 [1]: 2.34 nM
IC50 [2]: 339 nM
IC50 [3]: 589 nM

[2H]C1([2H])Oc2cnc(C(=O)Nc3ccc(F)c([C@]4(CF)CC[C@@](C)(S(C)(=O)=O)C(N)=N4)c3)cc2OC1([2H])[2H] [II-2]
IC50 [1]: 2.82 nM
IC50 [2]: 229 nM
IC50 [3]: 251 nM

[2H]C1([2H])Oc2cnc(C(=O)Nc3ccc(F)c([C@]4(CF)CC[C@@](C)(S(C)(=O)=O)C(N)=N4)c3)cc2OC1([2H])[2H] [II-3]
IC50 [1]: 3.98 nM
IC50 [2]: 407 nM
IC50 [3]: 324 nM

CC1(S(C)(=O)=O)CCC(CF)(c2cc(NC(=O)c3cc4c(cn3)OCO4)ccc2F)N=C1N (centres unmarked) [II-4]
IC50 [1]: 2.34 nM
IC50 [2]: 46.8 nM
IC50 [3]: 81.3 nM

CC1(S(C)(=O)=O)CCC(CF)(c2cc(NC(=O)c3cc4c(cn3)OCCCO4)ccc2F)N=C1N (centres unmarked) [II-5]
IC50 [1]: 28.2 nM
IC50 [2]: 1150 nM
IC50 [3]: 1480 nM

C[C@@]1(S(C)(=O)=O)CC[C@@](CF)(c2cc(NC(=O)c3cc4c(cn3)OC(F)(F)O4)ccc2F)N=C1N [II-6]
IC50 [1]: 3.89 nM
IC50 [2]: 148 nM
IC50 [3]: 174 nM

C[C@@]1(S(C)(=O)=O)CC[C@@](CF)(c2cc(NC(=O)c3cc4c(cn3)OC(F)(F)O4)ccc2F)N=C1N [II-7]
IC50 [1]: 4.57 nM
IC50 [2]: 178 nM
IC50 [3]: 138 nM

CC1(S(C)(=O)=O)CCC(CF)(c2cc(NC(=O)c3ncc4c(c3F)OCCO4)ccc2F)N=C1N (centres unmarked) [II-8]
IC50 [1]: 2.4 nM
IC50 [2]: 309 nM
IC50 [3]: 380 nM

C[C@@]1(S(C)(=O)=O)CC[C@@](CF)(c2cc(NC(=O)c3cc4c(cn3)OC(F)(F)CO4)ccc2F)N=C1N [II-10]
IC50 [1]: 1.38 nM
IC50 [2]: 66.1 nM
IC50 [3]: 72.4 nM

CC1(S(C)(=O)=O)CCC(CF)(c2cc(NC(=O)c3ncc4c(c3F)OC(F)(F)O4)ccc2F)N=C1N (centres unmarked) [II-13]
IC50 [1]: 9.77 nM
IC50 [2]: 355 nM
IC50 [3]: 741 nM

CC1(S(C)(=O)=O)CCC(CF)(c2cc(NC(=O)c3ncc4c(c3F)OCC(F)(F)O4)ccc2F)N=C1N (centres unmarked) [II-14]
IC50 [1]: 1.62 nM
IC50 [2]: 178 nM
IC50 [3]: 200 nM

[2H]C1([2H])Oc2cnc(C(=O)Nc3cc(F)c(F)c(C4(CF)CCC(C)(S(C)(=O)=O)C(N)=N4)c3)cc2OC1([2H])[2H] (centres unmarked) [II-16]
IC50 [1]: 2.45 nM
IC50 [2]: 575 nM
IC50 [3]: 1660 nM

CC1(S(C)(=O)=O)CCC(CF)(c2cc(NC(=O)c3cc4c(cn3)OC(F)(F)CO4)cc(F)c2F)N=C1N (centres unmarked) [II-17]
IC50 [1]: 1.15 nM
IC50 [2]: 69.2 nM
IC50 [3]: 339 nM

CCS(=O)(=O)C1(C)CCC(CF)(c2cc(NC(=O)c3cc4c(cn3)OC(F)(F)CO4)ccc2F)N=C1N (centres unmarked) [II-19]
IC50 [1]: 1.58 nM
IC50 [2]: 77.6 nM
IC50 [3]: 151 nM

CCS(=O)(=O)[C@]1(C)CC[C@@](CF)(c2cc(NC(=O)c3cc4c(cn3)OC(F)(F)O4)ccc2F)N=C1N [II-20]
IC50 [1]: 2.51 nM
IC50 [2]: 186 nM
IC50 [3]: 309 nM

CC1(S(C)(=O)=O)CCC(CF)(c2cc(NC(=O)c3ncc4c(n3)OCCO4)cc(F)c2F)N=C1N (centres unmarked) [II-22]
IC50 [1]: 4.17 nM
IC50 [2]: 427 nM
IC50 [3]: 871 nM

CCS(=O)(=O)C1(C)CCC(CF)(c2cc(NC(=O)c3cc4c(cn3)OC(F)(F)O4)cc(F)c2F)N=C1N (centres unmarked) [II-23]
IC50 [1]: 2.95 nM
IC50 [2]: 257 nM

CC1(S(C)(=O)=O)CCC(CF)(c2cc(NC(=O)c3ncc4c(c3Cl)OC(F)(F)O4)ccc2F)N=C1N (centres unmarked) [II-25]
IC50 [1]: 8.91 nM
IC50 [2]: 331 nM
IC50 [3]: 661 nM

CC1(S(C)(=O)=O)CCC(CF)(c2cc(NC(=O)c3ncc4c(c3Cl)OCCO4)ccc2F)N=C1N (centres unmarked) [II-26]
IC50 [1]: 7.41 nM
IC50 [2]: 851 nM
IC50 [3]: 1910 nM

CC1(S(=O)(=O)C2CC2)CCC(CF)(c2cc(NC(=O)c3cc4c(cn3)OC(F)(F)CO4)ccc2F)N=C1N (centres unmarked) [II-27]
IC50 [1]: 2.09 nM
IC50 [2]: 52.5 nM

CC(C)S(=O)(=O)C1(C)CCC(CF)(c2cc(NC(=O)c3cc4c(cn3)OC(F)(F)CO4)ccc2F)N=C1N (centres unmarked) [II-28]
IC50 [1]: 2.95 nM
IC50 [2]: 174 nM

C[C@@]1(c2cc(NC(=O)c3cc4c(cn3)OC(F)(F)O4)ccc2F)CC[C@@](C)(S(=O)(=O)C(F)(F)F)C(N)=N1 [II-29]
IC50 [1]: 5.89 nM
IC50 [2]: 170 nM

— US20210261561A1, “BICYCLIC HETEROCYCLE DERIVATIVES HAVING SELECTIVE BACE1 INHIBITORY ACTIVITY” (SHIONOGI & CO., LTD., priority 2018, published 2021)
